Entries after “also recorded” stand apart in the source; their conditions may differ.
How the values were obtained:
MARCH5 [1] = molecular target: T1, MARCH5 (Homo sapiens, UniProt Q9NX47); assay: MARCH5 / γc-luciferase reporter system in co-transfected HEK293 cells (screen of FDA-approved drugs); assay type: cell-based; conditions: HEK293 cells co-transfected with MARCH5 and γc-luciferase fusion protein; increase = MARCH5 inhibition
T1 construct: expressed in transfected cells; host or cells: HEK293
T1 sequence (Q9NX47 1-278): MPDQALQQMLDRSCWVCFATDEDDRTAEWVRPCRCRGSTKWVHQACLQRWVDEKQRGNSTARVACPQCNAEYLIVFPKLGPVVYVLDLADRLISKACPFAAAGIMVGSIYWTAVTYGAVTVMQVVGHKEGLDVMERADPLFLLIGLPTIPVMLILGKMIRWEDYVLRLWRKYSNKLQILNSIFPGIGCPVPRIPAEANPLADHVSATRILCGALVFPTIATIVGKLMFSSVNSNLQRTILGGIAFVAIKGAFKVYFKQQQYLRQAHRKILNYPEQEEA
Source text: Unfortunately, no pharmacological inhibitors of MARCH5 have been reported. We designed a reporter system in which HEK293 cells are co-transfected with two plasmids encoding MARCH5 and γc-luciferase fusion protein respectively. In this system, inhibition of MARCH5 by an inhibitor would result in increased luciferase activity in reporter assays.
Using this system, we screened a collection of Food and Drug Administration-approved drugs and identified 10 compounds that increased luciferase activity to more than 1.5-folds (Table 1). […] Pitavastatin is a unique lipophilic statin and potent inhibitor of HMG-CoA reductase with a strong effect on lowering plasma total cholesterol and triacylglycerol. Pitavastatin has also been reported to have pleiotropic beneficial effects such as suppression of inflammation, regulation of angiogenesis and osteogenesis, improvement of endothelial function and arterial stiffness.

γc [2] = assay: γc degradation in Jurkat cells with degradation-route inhibitors (CHX chase or PD-L1 stimulation); assay type: cell-based, human
Experimental: PD-1-expressing Jurkat cells were pre-stimulated with PHA (50 ng/ml) for 36 h and then treated with CHX (0.1 mM) for the indicated times before immunoblotting analysis with the indicated antibodies. […] PD-1-expressing Jurkat cells were stimulated with PHA (50 ng/ml) in the presence of 2 μg/ml human PD-L1-Fc fusion protein or control (human IgG1) for 36 h, and then treated with MG132 ([…]), NH4Cl (25 mM) or 3-MA (500 ng/ml) for 12 h before immunoblotting analysis with the indicated antibodies. • (D) PD-1 ligation induces polyubiquitination of γc. PD-1-expressing Jurkat cells were stimulated with PHA (50 ng/ml) for the indicated times before co-immunoprecipitation and immunoblotting analysis with the indicated antibodies. • (E) MARCH5 promotes degradation of γc in a dose-dependent manner. HEK293 cells were transfected with the indicated plasmids for 24 h before immunoblot analysis with the indicated antibodies. • (F) Association of γc with MARCH5. […]
Cells were lysed in 1 ml of NP-40 lysis buffer (20 mM Tris-HCl, 150 mM NaCl, 1 mM EDTA, 10% Nonidet P-40, […] Triton X-100, […] aprotinin, 10 μg/ml leupeptin, and 1 mM phenylmethylsulfonyl fluoride, PMSF). […] The immunoprecipitants were analyzed by immunoblotting with the ubiquitin antibody.

MARCH5 [3] = molecular target: T1, MARCH5; assay: MARCH5-mediated degradation of γc in HEK293 cells; assay type: cell-based
Experimental: HEK293 cells were transfected by standard calcium phosphate precipitation. The empty control plasmid was added to ensure that each transfection receives the same amount of total DNA.
Cells were lysed in 1 ml of NP-40 lysis buffer (20 mM Tris-HCl, 150 mM NaCl, 1 mM EDTA, 10% Nonidet P-40, […] Triton X-100, […] aprotinin, 10 μg/ml leupeptin, and 1 mM phenylmethylsulfonyl fluoride, PMSF). For each immunoprecipitation reaction, a 0.4 ml aliquot of lysate was incubated with 0.5-2 μg of the indicated antibody or control IgG and 35 μL of a 1:1 slurry of Protein-G Sepharose (GE Healthcare) at 4° C. for 3 h. The Sepharose beads were washed three times with 1 ml of lysis buffer containing 500 mM NaCl. The precipitates were fractionated by SDS-PAGE, and immunoblotting analysis was performed with the indicated antibodies. For ubiquitination assays, the immunoprecipitants were re-extracted in NP-40 lysis buffer containing 1% SDS and denatured by heating for 10 min. The supernatants were diluted with regular lysis buffer until the concentration of SDS was decreased to 0.1%, following by re-immunoprecipitation with the indicated antibodies. The immunoprecipitants were analyzed by immunoblotting with the ubiquitin antibody.

γc [4] = assay: Effects of other statin drugs on the γc level; assay type: cell-based; conditions: other HMG-CoA reductase inhibitor statins
Source text: Statin drugs, such as lovastatin, simvastatin, fluvastatin sodium and rosuvastatin calcium, are thought to target HMG-CoA reductase. Therefore, we examined the effects of these statin drugs on the γc level.

tumor = assay: PC or rosuvastatin calcium alone or with IL-2 on tumor growth in mice; assay type: in vivo, mouse
Source text: We further tested the anti-tumor effects of PC in mouse MC38 colorectal carcinoma and B16F10 melanoma models.

Compound	Rel. Luc. Act (MARCH5 [1])	further results
O=C(CCCCCCC(=O)Nc1ccccc1)NO [Vorinostat]	1.58	–
Cl.N [NH4Cl, ammonium chloride]	–	γc degradation after termination of protein synthesis by CHX (γc [2]; Jurkat cells, MG132 100 μM, NH4Cl 25 mM or 3-MA 500 ng/ml 4 h, then CHX 0.1 mM 2 h): markedly inhibited; also recorded: inhibits γc degradation; PD-L1-induced degradation of γc (γc [2]; PD-1-expressing Jurkat cells, PHA + PD-L1-Fc 36 h, then inhibitor 12 h): also inhibited; also recorded: inhibits PD-1 ligation-induced degradation of γc; MARCH5-mediated degradation of γc (MARCH5 [3]): inhibited MARCH5-mediated degradation of γc
Nc1ccccc1NC(=O)c1ccc(CNC(=O)OCc2cccnc2)cc1 [Entinostat]	1.60	–
Nc1cc(F)ccc1NC(=O)c1ccc(CNC(=O)/C=C/c2cccnc2)cc1 [Tucidinostat]	1.86	–
NC(=O)N1CCC(CC(=O)N2CCC([C@H]3c4ncc(Br)cc4CCc4cc(Cl)cc(Br)c43)CC2)CC1 [Lonafarnib]	2.88	–
O=C(/C=C/c1cccc(S(=O)(=O)Nc2ccccc2)c1)NO [Belinostat]	1.85	–
Nc1ccccc1NC(=O)c1ccc(CNc2nccc(-c3cccnc3)n2)cc1 [Mocetinostat]	1.83	–
O=P(O)(O)C(O)(Cc1cccnc1)P(=O)(O)O [Risedronate Sodium]	1.60	–
CC(C)c1nc(N(C)S(C)(=O)=O)nc(-c2ccc(F)cc2)c1/C=C/[C@@H](O)C[C@@H](O)CC(=O)[O-].CC(C)c1nc(N(C)S(C)(=O)=O)nc(-c2ccc(F)cc2)c1/C=C/[C@@H](O)C[C@@H](O)CC(=O)[O-].[Ca+2] [rosuvastatin calcium]	–	γc level (γc [4]): up-regulated the level of γc; synergistic effect with IL-2 on tumor suppression (tumor; combined with IL-2, mice): no such synergism was observed; tumor growth (tumor; statin administered alone, mice): suppressed tumor growth
CC[C@H](C)C(=O)O[C@H]1C[C@@H](C)C=C2C=C[C@H](C)[C@H](CC[C@@H]3C[C@@H](O)CC(=O)O3)[C@H]21 [lovastatin]	–	γc level (γc [4]): up-regulated the level of γc
CCCCc1nc2cc(/C=C/C(=O)NO)ccc2n1CCN(CC)CC [Pracinostat]	1.75	–
Chidamide	1.59	–

— patent US20260216168A1, “MODULATION OF PD-1 SIGNALING FOR TREATMENT OF DISEASES” (Wuhan University, priority 2023, published 2026)
